Patent publication US10603322B2, “Therapeutic targeting of casein kinase 1δ in breast cancer” (The Scripps Research Institute, priority 2015, dated 2020)

Experiments:
BCM-4013 PDX tumors = assay: Patient-derived xenograft (PDX) model; assay type: in vivo, SCID/Bg mice; conditions: 20 mg/kg daily i.p.
From the text: (§1) All animal studies are approved by the Scripps Florida IACUC. Stable pools of MDA-MB-231-Luc, MDA-MB-231, MDA-MB-468, SKBR3 or BT474 cells were established by injection of 2×10^6 cancer cells into the mammary fat pads of 6-week old female athymic nude mice (Charles River Laboratories). Establishment of BCM-4013 patient derived xenografts were as described (19). Briefly, fresh xenograft tumor fragments (˜1 mm^3) were transplanted into the cleared mammary fat pad of recipient SCID/Bg mice (Charles River Laboratories). Mice were treated with SR-3029 or vehicle (10:10:80, DMSO:Tween-80:Water) at 20 mg/kg daily by i.p. injection. Tumor volumes were measured as the indicated intervals using calipers or by luminescence imaging using the IVIS 100 imager (exposure time, 1-60 sec; binning 8; field of view 15-cm; f/stop 1; open filter) following subcutaneous injection of luciferin (15 mg/ml, Goldbio Technology). Average radiance (p/s/cm^2/sr) was determined from tumor region-of-interest (ROI) using Living-Image (Xenogen) analysis software.
For apoptotic detection in cryosections tumors and small intestines were fixed in 10% buffered formalin for 2 hr, incubated in 20% sucrose overnight and embedded in OCT. Frozen sections ([…]) were mounted and stained using the ApopTag Red In Situ Kit according to the manufacturer instructions (CHEMICON). […]

[1] = tested on: activated β-catenin signaling; assay: Wnt/β-catenin markers in MDA-MB-231 tumors of treated mice; assay type: in vivo; conditions: 20 mg/kg once daily i.p.
From the text: All animal studies are approved by the Scripps Florida IACUC. Stable pools of MDA-MB-231-Luc, MDA-MB-231, MDA-MB-468, SKBR3 or BT474 cells were established by injection of 2×10^6 cancer cells into the mammary fat pads of 6-week old female athymic nude mice (Charles River Laboratories). Establishment of BCM-4013 patient derived xenografts were as described (19). Briefly, fresh xenograft tumor fragments (˜1 mm^3) were transplanted into the cleared mammary fat pad of recipient SCID/Bg mice (Charles River Laboratories). Mice were treated with SR-3029 or vehicle (10:10:80, DMSO:Tween-80:Water) at 20 mg/kg daily by i.p. injection. Tumor volumes were measured as the indicated intervals using calipers or by luminescence imaging using the IVIS 100 imager (exposure time, 1-60 sec; binning 8; field of view 15-cm; f/stop 1; open filter) following subcutaneous injection of luciferin (15 mg/ml, Goldbio Technology). Average radiance (p/s/cm^2/sr) was determined from tumor region-of-interest (ROI) using Living-Image (Xenogen) analysis software. SDS-PAGE gel electrophoresis was performed using NuPAGE 4-12% Bis-Tris gels (Invitrogen) and transferred to PVDF membranes by semi-dry transfer using trans-blot transfer medium (Biorad). Membranes were blocked in Odyssey blocking buffer (LI-COR Biosciences) and incubated overnight at 4° C. with primary antibodies. After repeated washes with TBST (20 mM Tris, pH 7.6, 140 mM NaCl and 0.1% Tween-20) blots were incubated with the appropriate IRDye-conjugated secondary antibody (LI-COR Biosciences) and imaged using the LI-COR Odyssey. Bands were quantified using the Odyssey software (LI-COR Biosciences). The following antibodies were used in this study: CK1δ and Histone H4 (Abcam), CK1ε, c-Myc (9E10), Cyclin-D1 and β-actin (Santa Cruz), β-catenin (Cell Signaling), GAPDH (Millipore) and CD44 (R&D Systems). Total RNA was obtained using the RNeasy Plus Mini Kit (Qiagen) and 1-2 μg of RNA was reverse transcribed with Superscript III First Strand Synthesis System (Life Technologies). Quantitative PCR was performed using the Power SYBR Green PCR Master Mix (Life Technologies) and the ABI7900HT Fast Real-Time PCR System. Intron-spanning gene-specific primer pairs were designed using the Primer3 algorithm and relative expression values for each gene of interest obtained by normalizing to GAPDH mRNA expression using the ^ΔΔCt method.

MCF10A cell line = assay: Cell proliferation assay (Cell-Titer Glo, 72 hr); assay type: cell-based, human; conditions: low CK1δ; versus CK1δ overexpressing cells
Procedure: (§2) Cell proliferation was measured 72 hr after SR-3029 or vehicle treatment using Cell-Titer Glo (Promega) according to the manufacturers' instructions. EC50 values were determined using non-linear regression and a four-parameter algorithm (GraphPad Prism5). For clonogenic assays, cells were plated in 6-well dishes in triplicate at a density of 500-1000 cells per well. After overnight incubation, SR-3029 or vehicle (DMSO) was added to media for 72 hr and cells were allowed to grow out for 7-10 days, during which media was changed every 2-3 days in the absence of compound. Colonies were fixed in 4% paraformaldehyde/PBS and stained with 0.5% methylene blue in 50% ethanol for 1 hr at room temperature and de-stained with water. Colonies with greater than 50 cells were counted using a low magnification light microscope.

T47D breast cancer cells = assay: Cell proliferation assay (Cell-Titer Glo, 72 hr); assay type: cell-based, human; conditions: low CK1δ; versus CK1δ overexpressing cells
Procedure: as §2

MCF7 breast cancer cells [2] = assay: Cell proliferation assay (Cell-Titer Glo, 72 hr); assay type: cell-based, human; conditions: low CK1δ; versus CK1δ overexpressing cells
Procedure: as §2

[3] = Tolerability of long-term daily dosing; assay type: in vivo, mice
From the text: as §1
For apoptotic detection in cryosections tumors and small intestines were fixed in 10% buffered formalin for 2 hr, incubated in 20% sucrose overnight and embedded in OCT. Frozen sections ([…]) were mounted and stained using the ApopTag Red In Situ Kit according to the manufacturer instructions (CHEMICON). For H&E staining, tissues were fixed in 10% buffered formalin for 48 hr, transferred to 70% ethanol/PBS and embedded in paraffin. Staining was performed on […] sections following deparaffinization (AML Laboratories).

[4] = tested on: β-catenin/TCF transcriptional activity; assay: TCF-dependent luciferase reporter assay in MDA-MB-231 cells; assay type: cell-based, human; conditions: increasing doses, 6 hr
Procedure: MDA-MB-231 or HEK293 cells stably expressing the TCF luciferase reporter 7TFP (39) were transfected with β-catenin-S33Y or empty vector (pcDNA). After 18 hr cells were seeded onto a 96-well plate at a density of 6000 cells/well. After 24 hr cells were treated with SR-3029 or vehicle and incubated for 6 hr prior to addition of 1 μg/ml recombinant human Wnt3a (R&D Systems) or PBS. After 3 hr, reporter assays were performed using BriteLite Plus (Perkin Elmer), which was added in equal volume directly to the media and luminescence read using a Spectramax plate reader (Molecular Devices).

MDA-MB-231 cells = assay: Clonogenic growth assay; assay type: cell-based, human
Procedure: as §2

MCF7 breast cancer cells [5] = assay: Clonogenic growth assay; assay type: cell-based, human
Procedure: as §2

Fc1cccc(-n2cnc3c(NCc4nc5ccc(F)c(F)c5[nH]4)nc(N4CCOCC4)nc32)c1 [SR-3029]
tumor cell apoptosis (TUNEL) (BCM-4013 PDX tumors): triggered tumor cell apoptosis | growth of PDX tumors (BCM-4013 PDX tumors; p=0.0002): significantly inhibited the growth | CCND1, WNT3, WNT9A and RARA mRNA transcripts in tumors ([1]; 7 days): decreases | SFRP1 transcripts in tumors ([1]; 7 days): marked increase | expression of nuclear β-catenin in tumors ([1]; 7 days): markedly reduced | CCND1 protein in tumors ([1]; day 7): down-regulation | sensitivity in cell proliferation assay (MCF10A cell line): 2-3 orders of magnitude less sensitive | sensitivity in cell proliferation assay (T47D breast cancer cells): 2-3 orders of magnitude less sensitive | sensitivity in cell proliferation assay (MCF7 breast cancer cells [2]): 2-3 orders of magnitude less sensitive and relative insensitivity and refractory | tolerability: body weight, blood chemistry and tissue integrity by histochemistry ([3]; long-term daily dosing (48 days), 20 mg/kg i.p.): well tolerated, with no overt toxicity | small intestine apoptosis, TUNEL staining ([3]; long-term treatment): failed to detect evidence of apoptosis | small intestine integrity, H&E staining ([3]; long-term treatment): no gross morphological defects | endogenous β-catenin/TCF transcriptional activity [4]: markedly reduced | clonogenic growth and survival (MDA-MB-231 cells): completely blocked | clonogenic growth inhibition with forced overexpression of CK1δ (MDA-MB-231 cells; CK1δ overexpressing vs GFP-expressing controls): sufficient to rescue the growth inhibitory effects | colony forming capacity (MCF7 breast cancer cells [5]): no effect | sensitivity of MCF7 cells with forced overexpression of CK1δ (MCF7 breast cancer cells [5]; short-term and long-term growth assays, CK1δ vs GFP): sensitizes them to SR-3029
